Measurements: publication doi:10.1101/2025.11.20.689647v1, “Alcohols inhibit glucose transporters noncompetitively at a constant membrane concentration according to lipid theory” (biorxiv, 2025)

Experiments:
Hxt2 [1] = test system: T1, Hxt2; experiment: initial 2DG uptake ([…] s, zero-trans), bioluminescent 2DG6P assay in HXT2m cells; assay type: cell-based, Saccharomyces cerevisiae; details: no alcohol, 0–4 mM 2DG, pH 7.4, 25 °C, zero-trans influx
T1 construct: full-length HXT2 expressed from ADH1 promoter on multicopy plasmid Hxt2mnx-pVT (pVT102-U) in S. cerevisiae EBY.S7 (all 18 hexose transporter genes deleted; HXT2m strain)

Hxt2 [2] = test system: T1, Hxt2; experiment: as above; assay type: cell-based, Saccharomyces cerevisiae; details: 1 mM 2DG, pH 7.4, 25 °C, 30 min preincubation, authors: nonspecific action via membrane lipid, not specific binding

`OC[C@H]1OC(O)C[C@@H](O)[C@@H]1O` (stereo partly drawn) [2DG, 2-deoxyglucose] gave a Km (Hxt2 [1]) of 800 to 900 µM.

`CCCCCCO` [C6, 1-hexanol] was tested, and the IC50 (Hxt2 [2]; noncompetitive) was 15.2 mM.

`CCCCCCCCO` [C8, 1-octanol] was tested, and the IC50 (Hxt2 [2]) was 3.6 mM.
